# Test results published in the Kinase Knowledgebase extract (Sharma et al. 2016).
# Molecular target: ROCK2 (human) (UniProt O75116)
# Test: Inhibition of ROCK2 Kinase Activity
# ROCK2 (human), sequence (O75116 whole entry, looked up): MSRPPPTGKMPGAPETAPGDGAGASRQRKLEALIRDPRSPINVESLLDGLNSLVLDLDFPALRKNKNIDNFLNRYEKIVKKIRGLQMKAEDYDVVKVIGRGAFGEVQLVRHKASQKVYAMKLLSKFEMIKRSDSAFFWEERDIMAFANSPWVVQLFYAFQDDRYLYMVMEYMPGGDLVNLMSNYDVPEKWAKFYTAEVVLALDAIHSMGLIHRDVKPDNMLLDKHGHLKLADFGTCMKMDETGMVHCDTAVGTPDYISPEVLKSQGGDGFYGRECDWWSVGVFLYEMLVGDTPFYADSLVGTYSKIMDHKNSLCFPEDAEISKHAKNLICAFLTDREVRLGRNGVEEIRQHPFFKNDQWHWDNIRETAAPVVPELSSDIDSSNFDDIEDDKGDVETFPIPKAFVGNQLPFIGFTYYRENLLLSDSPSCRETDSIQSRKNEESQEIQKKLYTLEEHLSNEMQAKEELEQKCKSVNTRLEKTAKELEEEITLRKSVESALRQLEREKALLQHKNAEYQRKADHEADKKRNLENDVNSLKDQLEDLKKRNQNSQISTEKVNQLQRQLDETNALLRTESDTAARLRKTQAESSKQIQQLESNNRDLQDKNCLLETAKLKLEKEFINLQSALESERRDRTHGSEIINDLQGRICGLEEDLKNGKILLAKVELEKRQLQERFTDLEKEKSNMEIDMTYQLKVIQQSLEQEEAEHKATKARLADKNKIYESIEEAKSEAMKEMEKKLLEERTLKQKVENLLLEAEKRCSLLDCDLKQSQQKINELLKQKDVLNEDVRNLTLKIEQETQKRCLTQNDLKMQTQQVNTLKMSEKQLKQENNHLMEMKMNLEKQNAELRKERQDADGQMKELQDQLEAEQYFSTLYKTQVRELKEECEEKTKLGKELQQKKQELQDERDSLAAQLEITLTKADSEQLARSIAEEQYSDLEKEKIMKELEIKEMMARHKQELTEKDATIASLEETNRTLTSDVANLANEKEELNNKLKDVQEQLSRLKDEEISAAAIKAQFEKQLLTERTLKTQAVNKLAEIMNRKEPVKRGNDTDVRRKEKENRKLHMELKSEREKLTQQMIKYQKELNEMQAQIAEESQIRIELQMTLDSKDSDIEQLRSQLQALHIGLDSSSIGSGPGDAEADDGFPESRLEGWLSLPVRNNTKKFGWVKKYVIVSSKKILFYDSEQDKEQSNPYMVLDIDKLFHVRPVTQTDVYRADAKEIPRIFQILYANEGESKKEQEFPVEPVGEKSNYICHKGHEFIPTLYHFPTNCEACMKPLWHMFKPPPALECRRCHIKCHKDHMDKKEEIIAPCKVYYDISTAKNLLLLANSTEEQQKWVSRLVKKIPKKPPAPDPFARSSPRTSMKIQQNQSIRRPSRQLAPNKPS
row,SMILES,IC50 [nM]
1,NC(c1ccc(C(=O)Nc2ccncc2)cc1)C1CCCN1C(=O)Cc1cccc(F)c1 (stereo unspecified),500 to 5000
2,NC(c1ccc(C(=O)Nc2ccncc2)cc1)C1CCCN1C(=O)C1(c2ccc(Cl)c(Cl)c2)CC1 (stereo unspecified),500 to 5000
3,NC(CNC(=O)c1cnccn1)c1ccc(C(=O)Nc2ccncc2)cc1 (stereo unspecified),500 to 5000
4,CN(CC(N)c1ccc(C(=O)Nc2ccncc2)cc1)C(=O)Cc1cc(F)ccc1F (stereo unspecified),500 to 5000
5,COc1cc(CC(=O)N2CCCC2C(N)c2ccc(C(=O)Nc3ccncc3)cc2)cc(OC)c1OC (stereo unspecified),500 to 5000
6,CC(C)=NOC(C)C(=O)NCC(N)c1ccc(C(=O)Nc2ccncc2)cc1 (stereo unspecified),500 to 5000
7,CCCC(=O)NCC(N)c1ccc(C(=O)Nc2ccncc2)cc1 (stereo unspecified),500 to 5000
8,NC(CNC(=O)c1cccc(Cn2cccn2)c1)c1ccc(C(=O)Nc2ccncc2)cc1 (stereo unspecified),500 to 5000
9,NC(c1ccc(C(=O)Nc2ccncc2)cc1)C1CCCN1C(=O)C1(c2ccc(F)cc2F)CC1 (stereo unspecified),500 to 5000
10,Cc1cccc(CC(=O)N(C)CC(N)c2ccc(C(=O)Nc3ccncc3)cc2)c1 (stereo unspecified),500 to 5000
11,NC(c1ccc(C(=O)Nc2ccncc2)cc1)C1CCCN1C(=O)C1CCCCc2ccc(F)cc21 (stereo unspecified),5000 to 50000
12,CN(CC(N)c1ccc(C(=O)Nc2ccncc2)cc1)C(=O)Cc1c(F)cccc1Cl (stereo unspecified),500 to 5000
13,NC(CNC(=O)C(c1ccccc1)C1CCCC1)c1ccc(C(=O)Nc2ccncc2)cc1 (stereo unspecified),500 to 5000
14,NC(c1ccc(C(=O)Nc2ccncc2)cc1)C1CCCN1C(=O)Cc1c(Cl)cccc1Cl (stereo unspecified),500 to 5000
15,Cc1cccc(CC(=O)N2CCCC2C(N)c2ccc(C(=O)Nc3ccncc3)cc2)c1 (stereo unspecified),500 to 5000
16,NC(CNC(=O)c1ccc(C(=O)c2ccccc2)cc1)c1ccc(C(=O)Nc2ccncc2)cc1 (stereo unspecified),500 to 5000
17,NC(c1ccc(C(=O)Nc2ccncc2)cc1)C1CCCN1C(=O)C1(c2ccc(Cl)c(Cl)c2)CCC1 (stereo unspecified),500 to 5000
18,CN(CC(N)c1ccc(C(=O)Nc2ccncc2)cc1)C(=O)C1(c2cccs2)CC1 (stereo unspecified),500 to 5000
19,NC(CNC(=O)CCc1cccnc1)c1ccc(C(=O)Nc2ccncc2)cc1 (stereo unspecified),500 to 5000
20,NC(c1ccc(C(=O)Nc2ccncc2)cc1)C1CCCN1C(=O)Cc1ccc(Cl)c(Cl)c1 (stereo unspecified),500 to 5000

row,SMILES,IC50 [nM]
1,NC(CNC(=O)Cc1ccncc1)c1ccc(C(=O)Nc2ccncc2)cc1 (stereo unspecified),500 to 5000
2,CN(CC(N)c1ccc(C(=O)Nc2ccncc2)cc1)C(=O)C1(c2ccc(Cl)c(Cl)c2)CCC1 (stereo unspecified),500 to 5000
3,COc1ccc(CC(=O)N(C)CC(N)c2ccc(C(=O)Nc3ccncc3)cc2)cc1F (stereo unspecified),500 to 5000
4,Cn1cccc1C(=O)NCC(N)c1ccc(C(=O)Nc2ccncc2)cc1 (stereo unspecified),500 to 5000
5,CN(CC(N)c1ccc(C(=O)Nc2ccncc2)cc1)C(=O)C(C)(C)c1ccc(F)c(Cl)c1 (stereo unspecified),500 to 5000
6,NC(c1ccc(C(=O)Nc2ccncc2)cc1)C1CCCN1C(=O)Cc1ccc(O)c([N+](=O)[O-])c1 (stereo unspecified),500 to 5000
7,CN(CC(N)c1ccc(C(=O)Nc2ccncc2)cc1)C(=O)Cc1ccccc1 (stereo unspecified),500 to 5000
8,CN(CC(N)c1ccc(C(=O)Nc2ccncc2)cc1)C(=O)Cc1ccc(Br)cc1 (stereo unspecified),500 to 5000
9,COc1ccc(CC(=O)N2CCCC2C(N)c2ccc(C(=O)Nc3ccncc3)cc2)cc1F (stereo unspecified),500 to 5000
10,NC(c1ccc(C(=O)Nc2ccncc2)cc1)C1CCCN1C(=O)Cc1cccc(Cl)c1F (stereo unspecified),500 to 5000
11,NC(CNC(=O)Cc1ccc(-c2ccccc2)cc1)c1ccc(C(=O)Nc2ccncc2)cc1 (stereo unspecified),500 to 5000
12,NC(c1ccc(C(=O)Nc2ccncc2)cc1)C1CCCN1C(=O)C1CCCc2ccccc21 (stereo unspecified),500 to 5000
13,NC(CNC(=O)c1nccc2ccccc12)c1ccc(C(=O)Nc2ccncc2)cc1 (stereo unspecified),500 to 5000
14,CN(CC(N)c1ccc(C(=O)Nc2ccncc2)cc1)C(=O)C(c1ccccc1)C1CCCC1 (stereo unspecified),5000 to 50000
15,NC(CNC(=S)Nc1ccc(C(F)(F)F)cc1)c1ccc(C(=O)Nc2ccncc2)cc1 (stereo unspecified),500 to 5000
16,COc1ccccc1CC(=O)NCC(N)c1ccc(C(=O)Nc2ccncc2)cc1 (stereo unspecified),500 to 5000
17,NC(c1ccc(C(=O)Nc2ccncc2)cc1)C1CCCN1C(=O)C1CCOc2ccc(F)cc21 (stereo unspecified),500 to 5000
18,CN(CC(N)c1ccc(C(=O)Nc2ccncc2)cc1)C(=O)Cc1ccc(-c2ccccc2)cc1 (stereo unspecified),500 to 5000
19,CN(CC(N)c1ccc(C(=O)Nc2ccncc2)cc1)C(=O)C1(c2ccsc2)CC1 (stereo unspecified),500 to 5000
20,NC(CNC(=O)CC1CC1)c1ccc(C(=O)Nc2ccncc2)cc1 (stereo unspecified),500 to 5000

row,SMILES,IC50 [nM]
1,CN(CC(N)c1ccc(C(=O)Nc2ccncc2)cc1)C(=O)Cc1cccc(F)c1 (stereo unspecified),500 to 5000
2,N[C@@H](CNC(=O)C1(c2ccc(Cl)cc2)CC1)c1ccc(C(=O)Nc2ccncc2)cc1,500 to 5000
3,CC(C)C(C(=O)N(C)CC(N)c1ccc(C(=O)Nc2ccncc2)cc1)c1ccc(Cl)cc1 (stereo unspecified),500 to 5000
4,COc1ccccc1C(=O)NCC(N)c1ccc(C(=O)Nc2ccncc2)cc1 (stereo unspecified),500 to 5000
5,CS(=O)(=O)c1cccc(C(=O)NCC(N)c2ccc(C(=O)Nc3ccncc3)cc2)c1 (stereo unspecified),500 to 5000
6,NC(CNC(=O)CC1CCCCC1)c1ccc(C(=O)Nc2ccncc2)cc1 (stereo unspecified),500 to 5000
7,NC(CNC(=O)c1cccnc1)c1ccc(C(=O)Nc2ccncc2)cc1 (stereo unspecified),500 to 5000
8,Cc1ccc(CC(=O)N(C)CC(N)c2ccc(C(=O)Nc3ccncc3)cc2)cc1 (stereo unspecified),500 to 5000
9,COc1ccc(CC(=O)N(C)CC(N)c2ccc(C(=O)Nc3ccncc3)cc2)c(OC)c1OC (stereo unspecified),5000 to 50000
10,Cc1ccc(C)c(CC(=O)NCC(N)c2ccc(C(=O)Nc3ccncc3)cc2)c1 (stereo unspecified),500 to 5000
11,CC1CCCC(C(=O)NCC(N)c2ccc(C(=O)Nc3ccncc3)cc2)C1 (stereo unspecified),500 to 5000
12,NC(c1ccc(C(=O)Nc2ccncc2)cc1)C1CCCN1C(=O)Cc1ccc(Br)cc1 (stereo unspecified),50 to 500
13,CS(=O)(=O)c1ccc(CNC(=O)CC(N)c2ccc(C(=O)Nc3ccncc3)cc2)cc1 (stereo unspecified),50 to 500
14,NC(CNC(=O)c1ccccc1)c1ccc(C(=O)Nc2ccncc2)cc1 (stereo unspecified),50 to 500
15,NC(CNC(=O)C1CCOc2ccc(F)cc21)c1ccc(C(=O)Nc2ccncc2)cc1 (stereo unspecified),50 to 500
16,CCC(C)C(=O)NCC(N)c1ccc(C(=O)Nc2ccncc2)cc1 (stereo unspecified),500 to 5000
17,NC(CNC(=O)Nc1ccc(F)cc1)c1ccc(C(=O)Nc2ccncc2)cc1 (stereo unspecified),50 to 500
18,NC(CNC(=O)c1ccncc1)c1ccc(C(=O)Nc2ccncc2)cc1 (stereo unspecified),500 to 5000
19,CC(C)(C(=O)N1CCCC1C(N)c1ccc(C(=O)Nc2ccncc2)cc1)c1ccc(F)c(Cl)c1 (stereo unspecified),500 to 5000

# Now from value to compound:
row,IC50 [nM],SMILES
1,50 to 500,NC(CNC(=O)CCC1CCCCC1)c1ccc(C(=O)Nc2ccncc2)cc1 (stereo unspecified)
2,50 to 500,COC(=O)C(C)NC(=O)CC(N)c1ccc(C(=O)Nc2ccncc2)cc1 (stereo unspecified)
3,50 to 500,CCOc1ccc(CCNC(=O)CC(N)c2ccc(C(=O)Nc3ccncc3)cc2)cc1 (stereo unspecified)
4,50 to 500,CC(Cc1ccc(Cl)cc1)NC(=O)CC(N)c1ccc(C(=O)Nc2ccncc2)cc1 (stereo unspecified)
5,50 to 500,NC(CC(=O)NCCc1ccc(Oc2ccccc2)cc1)c1ccc(C(=O)Nc2ccncc2)cc1 (stereo unspecified)
6,50 to 500,NC(CC(=O)NCc1ccco1)c1ccc(C(=O)Nc2ccncc2)cc1 (stereo unspecified)
7,50 to 500,NC(CNC(=O)C1(c2ccc(Cl)c(Cl)c2)CCC1)c1ccc(C(=O)Nc2ccncc2)cc1 (stereo unspecified)
8,50 to 500,COc1ccc(CNC(=O)CC(N)c2ccc(C(=O)Nc3ccncc3)cc2)cc1 (stereo unspecified)
9,50 to 500,NC(CC(=O)NCc1ccc2c(c1)OCO2)c1ccc(C(=O)Nc2ccncc2)cc1 (stereo unspecified)
10,50 to 500,COc1cccc(CNC(=O)CC(N)c2ccc(C(=O)Nc3ccncc3)cc2)c1OC (stereo unspecified)
11,50 to 500,Cc1cc(Cl)ccc1NC(=O)NCC(N)c1ccc(C(=O)Nc2ccncc2)cc1 (stereo unspecified)
12,50 to 500,NC(CNC(=O)C1(c2ccc(Cl)cc2)CC1)c1ccc(C(=O)Nc2ccncc2)cc1 (stereo unspecified)
13,50 to 500,NC(CNC(=O)Cc1ccc(F)cc1)c1ccc(C(=O)Nc2ccncc2)cc1 (stereo unspecified)
14,50 to 500,CN(CCc1ccccc1)C(=O)CC(N)c1ccc(C(=O)Nc2ccncc2)cc1 (stereo unspecified)
15,50 to 500,CN(CCO)C(=O)CC(N)c1ccc(C(=O)Nc2ccncc2)cc1 (stereo unspecified)
16,50 to 500,COCCNC(=O)CC(N)c1ccc(C(=O)Nc2ccncc2)cc1 (stereo unspecified)
17,50 to 500,CC(C)(C(=O)NCC(N)c1ccc(C(=O)Nc2ccncc2)cc1)c1ccc(F)cc1 (stereo unspecified)
18,50 to 500,NC(CC(=O)Nc1ccccc1)c1ccc(C(=O)Nc2ccncc2)cc1 (stereo unspecified)
19,50 to 500,NC(CC(=O)N[C@@H]1CCc2ccccc21)c1ccc(C(=O)Nc2ccncc2)cc1 (stereo partly specified)
20,50 to 500,NC(CC(=O)NCc1cccc(C(F)(F)F)c1)c1ccc(C(=O)Nc2ccncc2)cc1 (stereo unspecified)
21,50 to 500,Cc1ccc(CNC(=O)CC(N)c2ccc(C(=O)Nc3ccncc3)cc2)cc1Cl (stereo unspecified)

row,IC50 [nM],SMILES
1,50 to 500,NC(CC(=O)N[C@H]1CCCc2ccccc21)c1ccc(C(=O)Nc2ccncc2)cc1 (stereo partly specified)
2,50 to 500,CC(=O)NCCNC(=O)CC(N)c1ccc(C(=O)Nc2ccncc2)cc1 (stereo unspecified)
3,50 to 500,NC(CNC(=O)c1ccc2ccccc2n1)c1ccc(C(=O)Nc2ccncc2)cc1 (stereo unspecified)
4,50 to 500,NC(CC(=O)NCc1ccc(C(F)(F)F)c(F)c1)c1ccc(C(=O)Nc2ccncc2)cc1 (stereo unspecified)
5,50 to 500,Cc1ccccc1NC(=O)NCC(N)c1ccc(C(=O)Nc2ccncc2)cc1 (stereo unspecified)
6,50 to 500,NC(CC(=O)NCc1ccc(F)c(C(F)(F)F)c1)c1ccc(C(=O)Nc2ccncc2)cc1 (stereo unspecified)
7,50 to 500,NC(CC(=O)NCCN1CCOCC1)c1ccc(C(=O)Nc2ccncc2)cc1 (stereo unspecified)
8,50 to 500,CC(Cc1c[nH]c2ccccc12)NC(=O)CC(N)c1ccc(C(=O)Nc2ccncc2)cc1 (stereo unspecified)
9,50 to 500,CC(C)(C(=O)NCC(N)c1ccc(C(=O)Nc2ccncc2)cc1)c1ccc(Cl)c(Cl)c1 (stereo unspecified)
10,50 to 500,CC(CNC(=O)CC(N)c1ccc(C(=O)Nc2ccncc2)cc1)c1ccccc1 (stereo unspecified)
11,50 to 500,Cc1cccc(CC(=O)NCC(N)c2ccc(C(=O)Nc3ccncc3)cc2)c1 (stereo unspecified)
12,50 to 500,NC(CC(=O)NCCc1ccccc1F)c1ccc(C(=O)Nc2ccncc2)cc1 (stereo unspecified)
13,50 to 500,NC(CC(=O)Nc1cc(-c2ccco2)[nH]n1)c1ccc(C(=O)Nc2ccncc2)cc1 (stereo unspecified)
14,50 to 500,NC(CC(=O)NCCc1cccc(Cl)c1)c1ccc(C(=O)Nc2ccncc2)cc1 (stereo unspecified)
15,50 to 500,COc1ccc(NC(=O)NCC(N)c2ccc(C(=O)Nc3ccncc3)cc2)cc1 (stereo unspecified)
16,50 to 500,CCOc1ccccc1CNC(=O)CC(N)c1ccc(C(=O)Nc2ccncc2)cc1 (stereo unspecified)
17,50 to 500,NC(CC(=O)NCC1CCCO1)c1ccc(C(=O)Nc2ccncc2)cc1 (stereo unspecified)
18,50 to 500,NC(CNC(=O)c1ccc2c(c1)OCO2)c1ccc(C(=O)Nc2ccncc2)cc1 (stereo unspecified)
19,50 to 500,NC(CC(=O)NCCc1ccc(Cl)c(Cl)c1)c1ccc(C(=O)Nc2ccncc2)cc1 (stereo unspecified)
20,50 to 500,NC(CNC(=O)[C@H]1CCC(=O)N1)c1ccc(C(=O)Nc2ccncc2)cc1 (stereo partly specified)
21,50 to 500,NC(CC(=O)NC(c1ccccc1)c1ccccc1)c1ccc(C(=O)Nc2ccncc2)cc1 (stereo unspecified)
